Results: US10196588B2, “Detergent formulation for dishwashing machine” (Universiti Putra Malaysia (UPM), priority 2012, dated 2019)

Experiments:
T1 lipase = experiment: Lipase stability test: residual activity of T1 lipase after incubation with detergent components; assay type: biochemical, Geobacillus zalihae strain T1; settings: for Stability of T1 lipase in the component (in words): incubation in 0.2% (w/v) component, 60° C., 30 min
Protocol: The compatibility of the T1 lipase with the other components of the formulated detergent was evaluated by incubating the enzyme in 0.2% (w/v) of those components, i.e., surfactants, bleaches, and alkalinity agents in a water bath (Protech, Malaysia) at 60° C. for 30 min. After 30 min, the enzyme was assayed for its residual activity.
J Am Oil Chem Soc. 63(1): p. 89-92]. A cupric acetate pyridine reagent was prepared by mixing 5% (w/v) copper (II) acetate with DI water and adjusting the solution pH to 6.1 with pyridine. The substrate emulsion used consisted of olive oil/50 mM of Glycine-NaOH buffer at pH 9.0 (1:1), which was homogenized using a homogenizer (Heidolph, Germany). […] After 30 min, the reaction was stopped by adding 5 ml isooctane and 1 ml 6 N HCl, and the mixture was vortexed for 30 s and left for 15 min. 4 ml of the upper layer of the mixture, which contained the fatty acids, was transferred to a test tube containing 1 ml of the cupric acetate pyridine reagent, and the mixture was vortexed for 30 s and left for 1 hour. The color of the solution was then evaluated colorimetrically by reading the OD using the Ultraspec 2100 Pro spectrophotometer (Amersham Bioscience, Sweden) at 715 nm. All assays were done in triplicates. 1 unit (U) of lipase activity was defined as the rate of 1 μmol of fatty acid released per minute under standard assay conditions.

[1] = Resulting pH of the alkalinity agents in solution; assay type: physicochemical; settings: resulting pH of the alkalinity agent in solution
[2] = T1 lipase residual activity after 30 min at 60° C. in 0.2% (w/v) surfactant or bleach, w/o control = 100
[3] = T1 lipase residual activity after 30 min at 60° C. in 0.2% (w/v) alkalinity agent, Glycine-NaOH control = 100

sodium perborate
Relative activity (%) (T1 lipase; [2]): 3.4%
Stability of T1 lipase in the component (in words) (T1 lipase): strongly destabilized

O=C([O-])[O-].O=C([O-])[O-].OO.OO.OO.[Na+].[Na+].[Na+].[Na+] [Sodium percarbonate, sodium percarbonate]
Relative activity (%) (T1 lipase; [2]): 0.3%
Stability of T1 lipase in the component (in words) (T1 lipase): strongly destabilized

CCCCCCCCCCCCOS(=O)(=O)[O-].[Na+] [SDS, sodium dodecyl sulfate]
Relative activity (%) (T1 lipase; [2]): 14%
Stability of T1 lipase in the component (in words) (T1 lipase): destabilized

O=C([O-])O.[Na+] [Sodium bicarbonate, sodium bicarbonate]
Relative activity (%) (T1 lipase; [3]): 94%
pH [1]: 8.63

CCCCCCCCCCCCCCCC[N+](C)(C)C.[Br-] [CTAB, cetyl trimethylammonium bromide]
Relative activity (%) (T1 lipase; [2]): 1.9%
Stability of T1 lipase in the component (in words) (T1 lipase): strongly destabilized

Polyethylene glycol 300 [PEG 300]
Relative activity (%) (T1 lipase; [2]): 61%

CCCCCCCC/C=C\CCCCCCCC(=O)OCCOCC(OCCO)C1OCC(OCCO)C1OCCO (centres unmarked) [Tween 80, polysorbate 80]
Relative activity (%) (T1 lipase; [2]): 98%
Stability of T1 lipase in the component (in words) (T1 lipase): highest stability

O=C([O-])CC(O)(CC(=O)[O-])C(=O)[O-].[Na+].[Na+].[Na+] [Sodium citrate, sodium citrate]
Relative activity (%) (T1 lipase; [3]): 48%
Stability of T1 lipase in the component (in words) (T1 lipase): did not greatly affect the stability
pH [1]: 8.30

O=C([O-])[O-].[Na+].[Na+] [Sodium carbonate, sodium carbonate]
Relative activity (%) (T1 lipase; [3]): 1%
Stability of T1 lipase in the component (in words) (T1 lipase): lowest residual activities
Stability of T1 lipase in the component (in words) (T1 lipase; listed as carbonate): greatly destabilized
pH [1]: 10.84

O=P(O)(O)OP(=O)(O)OP(=O)(O)O [Sodium tripolyphosphate, sodium tripolyphosphate]
Relative activity (%) (T1 lipase; [3]): 0%
Stability of T1 lipase in the component (in words) (T1 lipase): lowest residual activities
pH [1]: 9.60
